The source of these data is article PMC9569529, “Safe and Efficient Sigma1 Ligand: A Potential Drug Candidate for Multiple Sclerosis” (International Journal of Molecular Sciences, 2022).

Data set [1] in a line: Solubility, shake-flask method. Conditions: thermodynamic from solid. Format: physicochemical. As to the method: Standardized in vitro ADME experiments were performed by Eurofins Cerep (Poitiers, France). Solubility assays were performed in PBS at pH 7.4, but also in simulated gastric fluid (SGF) and intestinal fluid (SIF), through the classical shake-flask method according to Lipinski et al. using HPLC-UV/VIS technology. Results were expressed in µM.

The nature of a further data set: Plasma stability. Format: in vitro ADME. Conditions: male, CD-1, mouse, 37 °C, read-out: Plasma t½ (converted). As to the method:
Plasma stability analyses were performed by M2SV (Lille, France). Incubations were performed in duplicate. The plasma (male mouse plasma CD-1, lithium-heparinized, from Sera Laboratories International Ltd. BioIVT, West Sussex, UK) was pre-incubated for 10 min at 37 °C before addition of the compound to a final concentration of 10 µM (0,1% DMSO). At the defined time points (0, 60, 1440 and 2880 min), fractions from each tube were transferred to fresh tubes containing cold CH3CN and an internal standard (Propanolol at 1 µM). After vigorous agitation and centrifugation (10 min at 10,000 rpm), the supernatants were analyzed. The degradation half-life (t1/2) values were calculated in minutes and hours via non-linear regression analysis using Microsoft® XLfit® Excel add-in from IDBS Ltd, Woking, UK.

For the next data set, the target named is MRP3 (Homo sapiens, UniProt O15438). Briefly: Drug transporter inhibition (ABC family). Type of data set: in vitro ADME. As to conditions: transporter-overexpressing cell lines, read-out: Drug transporters inhibition MRP3. As to the method: (§1) The compound was classically evaluated at 10 µM for all the ADME analyses. Bidirectional permeability (apical A to basolateral B pH 6.5/7.4 and basolateral B to apical A pH 7.4/6.5) was assessed in the epithelial colorectal adenocarcinoma cell line (Caco-2 cell line). Results were expressed as × 10^−6cm/s (Papp) and as % recovery. Efflux ratio, i.e., Papp(B-A)/Papp(A-B), was calculated. Plasma protein binding was analyzed by HPLC-MS/MS after 4-h incubation at 37 °C, as described by Banker et al.. Concentration was evaluated by LC/MS-MS. CYP inhibition was performed in human liver microsomes as described in [61]. Analysis of the respective metabolites. was performed by HPLC-MS/MS. Transporter inhibition analysis was also performed in overexpressing cell lines. Respective metabolites for each specific transporter substrate were analyzed by fluorometry or scintillation counting and % inhibition of control values were calculated. P-glycoprotein transporter substrate assessment was performed by bidirectional permeability analysis (apical A to basolateral B pH 7.4/7.4 and basolateral B to apical A pH 7.4/7.4) in the Caco-2 cell line with and without verapamil, as described in [59]. Results were expressed as ×10^−6 cm/s (Papp) and as % recovery. The efflux ratio, i.e., Papp(B-A)/Papp(A-B), was calculated. CYP450 induction characterization was performed on human hepatocytes. The mRNA levels of 7 different CYPs were analyzed by qPCR, as described in [72]. The compound was evaluated at 1, 10 and 100 µM. Fold-induction values were determined and compared to cut-off values, as defined for each CYP isozyme in each hepatocyte lot.

A further data set deals with T1, P-gp (Homo sapiens, UniProt P08183).
T1 construct: in the Caco-2 cell line with and without verapamil; host or cells: Caco-2
Briefly: Drug transporter inhibition (ABC family). Format: in vitro ADME. Conditions: transporter-overexpressing cell lines, read-out: Drug transporters inhibition P-gp. On the procedure:
as §1

In another data set the target is MRP1 (Homo sapiens, UniProt P33527). Briefly: Drug transporter inhibition (ABC family). Type of data set: in vitro ADME. As to conditions: transporter-overexpressing cell lines, read-out: Drug transporters inhibition MRP1. As to the method:
as §1

In the next data set the target is MRP2 (Homo sapiens, UniProt Q92887). Briefly: Drug transporter inhibition (ABC family). Type of data set: in vitro ADME. Conditions: transporter-overexpressing cell lines, read-out: Drug transporters inhibition MRP2. On the procedure:
as §1

A further data set deals with BCRP (Homo sapiens, UniProt Q9UNQ0). Briefly: Drug transporter inhibition (ABC family). Format: in vitro ADME. As to conditions: transporter-overexpressing cell lines, read-out: Drug transporters inhibition BCRP. As to the method: as §1
Another data set deals with T2, CYP2D6 (Homo sapiens, UniProt P10635).
T2 construct: tissue Eurofins Cerep (CRO); host or cells: human liver microsomes
Briefly: CYP inhibition in human liver microsomes. Type of data set: in vitro ADME. Conditions: read-out: CYPs inhibition CYP2D6. On the procedure: as §1
(In general: Microsomes from liver hold many membrane-bound enzymes, among them those of drug oxidation.)

The target of another data set is T3, CYP2B6 (Homo sapiens, UniProt P20813).
T3 construct: tissue Eurofins Cerep (CRO); host or cells: human liver microsomes
Briefly: CYP inhibition in human liver microsomes. Format: in vitro ADME. As to conditions: read-out: CYPs inhibition CYP2B6. As to the method: as §1

For a further data set, the target named is T4, CYP2C9 (Homo sapiens, UniProt P11712).
T4 construct: tissue Eurofins Cerep (CRO); host or cells: human liver microsomes
Briefly: CYP inhibition in human liver microsomes. Conditions: read-out: CYPs inhibition CYP2C9. Type of data set: in vitro ADME. On the procedure: as §1

The target of the next data set is T5, CYP1A (Homo sapiens, UniProt P05177).
T5 construct: tissue Eurofins Cerep (CRO); host or cells: human liver microsomes
Briefly: CYP inhibition in human liver microsomes. Conditions: read-out: CYPs inhibition CYP1A. Format: in vitro ADME. On the procedure:
as §1

In a further data set the target is T6, CYP2C19 (Homo sapiens, UniProt P33261).
T6 construct: tissue Eurofins Cerep (CRO); host or cells: human liver microsomes
Briefly: CYP inhibition in human liver microsomes. Conditions: read-out: CYPs inhibition CYP2C19. Type of data set: in vitro ADME. On the procedure:
as §1

The test system of another data set is CYP3A. Briefly: CYP inhibition in human liver microsomes. Format: in vitro ADME. Conditions: read-out: CYPs inhibition CYP3A. As to the method:
as §1

The target of a further data set is T7, CYP2C8 (Homo sapiens, UniProt P10632).
T7 construct: tissue Eurofins Cerep (CRO); host or cells: human liver microsomes
Briefly: CYP inhibition in human liver microsomes. As to conditions: read-out: CYPs inhibition CYP2C8. Format: in vitro ADME. On the procedure: as §1

Setting [2] is: PBS pH 7.4, pH 7.4, aqueous buffer, read-out: Solubility PBS pH7.4.
Setting [3] is: simulated gastric fluid (SGF), simulated gastric fluid, read-out: Solubility SGF.
The mark [4] stands for this setting: simulated intestinal fluid (SIF), fassgf or other biorelevant, read-out: Solubility SIF.

As a reminder, the solubility is the dissolved amount per volume that the medium holds. By inhibition is commonly meant the relative decrease from the control value, in per cent.

Converted amounts (≈) assume the structure as drawn. Like-named read-outs stand apart in the source and are kept apart here.

BCRP, sequence (Q9UNQ0 whole entry): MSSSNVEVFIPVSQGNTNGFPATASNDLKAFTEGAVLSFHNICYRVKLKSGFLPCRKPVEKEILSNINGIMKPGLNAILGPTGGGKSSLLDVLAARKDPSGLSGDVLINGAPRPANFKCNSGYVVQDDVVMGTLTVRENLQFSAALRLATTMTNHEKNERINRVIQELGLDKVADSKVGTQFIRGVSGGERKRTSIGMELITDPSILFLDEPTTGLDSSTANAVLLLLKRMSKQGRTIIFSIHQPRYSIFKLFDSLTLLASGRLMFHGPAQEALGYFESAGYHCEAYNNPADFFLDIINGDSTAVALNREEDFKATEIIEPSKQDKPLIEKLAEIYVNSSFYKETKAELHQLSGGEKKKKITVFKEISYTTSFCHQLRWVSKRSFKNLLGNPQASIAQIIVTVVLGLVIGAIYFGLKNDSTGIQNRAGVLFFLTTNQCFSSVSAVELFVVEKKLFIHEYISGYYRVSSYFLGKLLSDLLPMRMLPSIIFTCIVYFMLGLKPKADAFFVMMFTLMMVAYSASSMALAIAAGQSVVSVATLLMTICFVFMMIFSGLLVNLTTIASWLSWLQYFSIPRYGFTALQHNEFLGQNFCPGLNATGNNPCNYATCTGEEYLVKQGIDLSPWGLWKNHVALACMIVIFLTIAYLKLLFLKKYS
T5 sequence (P05177 2-516 limits assumed): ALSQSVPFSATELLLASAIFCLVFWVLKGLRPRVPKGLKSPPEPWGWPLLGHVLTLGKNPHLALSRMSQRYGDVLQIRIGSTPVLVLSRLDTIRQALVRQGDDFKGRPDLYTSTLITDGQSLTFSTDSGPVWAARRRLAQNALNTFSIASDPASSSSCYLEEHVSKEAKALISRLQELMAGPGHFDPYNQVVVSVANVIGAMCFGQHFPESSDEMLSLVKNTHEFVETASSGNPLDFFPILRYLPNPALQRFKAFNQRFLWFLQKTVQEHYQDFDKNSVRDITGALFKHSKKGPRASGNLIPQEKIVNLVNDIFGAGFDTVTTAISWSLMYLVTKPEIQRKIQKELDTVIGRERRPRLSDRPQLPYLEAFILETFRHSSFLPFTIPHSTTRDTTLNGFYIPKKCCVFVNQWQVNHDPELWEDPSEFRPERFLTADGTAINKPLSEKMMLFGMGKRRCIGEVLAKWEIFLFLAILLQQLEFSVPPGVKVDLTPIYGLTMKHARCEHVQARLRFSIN
MRP3, sequence (O15438 whole entry): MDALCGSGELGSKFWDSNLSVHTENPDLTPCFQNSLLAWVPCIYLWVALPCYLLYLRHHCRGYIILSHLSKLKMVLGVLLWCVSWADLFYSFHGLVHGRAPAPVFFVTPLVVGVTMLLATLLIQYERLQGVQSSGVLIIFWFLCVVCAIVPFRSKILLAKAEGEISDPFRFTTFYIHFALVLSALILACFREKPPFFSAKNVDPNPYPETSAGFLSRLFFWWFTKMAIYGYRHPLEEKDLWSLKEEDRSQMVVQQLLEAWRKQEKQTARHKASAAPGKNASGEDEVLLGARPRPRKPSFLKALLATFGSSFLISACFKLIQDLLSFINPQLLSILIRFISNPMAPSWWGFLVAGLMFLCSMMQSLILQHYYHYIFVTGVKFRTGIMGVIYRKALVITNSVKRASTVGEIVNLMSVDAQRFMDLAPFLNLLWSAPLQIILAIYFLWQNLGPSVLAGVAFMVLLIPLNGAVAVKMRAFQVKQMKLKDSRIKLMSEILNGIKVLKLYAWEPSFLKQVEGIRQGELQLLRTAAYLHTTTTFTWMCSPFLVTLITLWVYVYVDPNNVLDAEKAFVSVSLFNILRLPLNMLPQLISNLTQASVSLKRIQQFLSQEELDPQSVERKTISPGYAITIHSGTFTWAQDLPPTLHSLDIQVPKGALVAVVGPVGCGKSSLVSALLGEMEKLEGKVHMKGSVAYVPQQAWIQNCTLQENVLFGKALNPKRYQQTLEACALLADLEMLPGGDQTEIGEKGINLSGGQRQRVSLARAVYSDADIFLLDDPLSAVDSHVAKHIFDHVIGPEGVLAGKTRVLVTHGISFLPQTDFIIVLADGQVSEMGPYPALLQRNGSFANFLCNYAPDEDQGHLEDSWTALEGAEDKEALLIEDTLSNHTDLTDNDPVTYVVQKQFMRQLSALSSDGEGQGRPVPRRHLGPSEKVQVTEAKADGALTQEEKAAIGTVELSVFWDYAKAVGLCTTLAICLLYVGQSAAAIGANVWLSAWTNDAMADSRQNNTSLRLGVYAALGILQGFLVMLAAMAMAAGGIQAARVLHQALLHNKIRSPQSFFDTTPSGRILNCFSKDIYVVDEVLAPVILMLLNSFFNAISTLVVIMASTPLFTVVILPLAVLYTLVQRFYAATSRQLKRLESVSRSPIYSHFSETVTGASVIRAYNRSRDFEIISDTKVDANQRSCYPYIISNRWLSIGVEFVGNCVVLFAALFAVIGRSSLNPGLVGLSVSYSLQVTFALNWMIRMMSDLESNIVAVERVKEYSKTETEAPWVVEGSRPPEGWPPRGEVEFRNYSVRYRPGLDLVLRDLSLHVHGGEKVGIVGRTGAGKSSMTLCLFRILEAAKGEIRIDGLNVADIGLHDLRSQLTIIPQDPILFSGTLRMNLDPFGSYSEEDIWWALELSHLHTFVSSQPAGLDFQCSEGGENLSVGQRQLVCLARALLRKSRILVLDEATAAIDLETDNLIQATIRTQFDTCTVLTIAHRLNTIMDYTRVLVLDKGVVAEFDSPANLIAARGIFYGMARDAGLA
MRP1, sequence (P33527 whole entry): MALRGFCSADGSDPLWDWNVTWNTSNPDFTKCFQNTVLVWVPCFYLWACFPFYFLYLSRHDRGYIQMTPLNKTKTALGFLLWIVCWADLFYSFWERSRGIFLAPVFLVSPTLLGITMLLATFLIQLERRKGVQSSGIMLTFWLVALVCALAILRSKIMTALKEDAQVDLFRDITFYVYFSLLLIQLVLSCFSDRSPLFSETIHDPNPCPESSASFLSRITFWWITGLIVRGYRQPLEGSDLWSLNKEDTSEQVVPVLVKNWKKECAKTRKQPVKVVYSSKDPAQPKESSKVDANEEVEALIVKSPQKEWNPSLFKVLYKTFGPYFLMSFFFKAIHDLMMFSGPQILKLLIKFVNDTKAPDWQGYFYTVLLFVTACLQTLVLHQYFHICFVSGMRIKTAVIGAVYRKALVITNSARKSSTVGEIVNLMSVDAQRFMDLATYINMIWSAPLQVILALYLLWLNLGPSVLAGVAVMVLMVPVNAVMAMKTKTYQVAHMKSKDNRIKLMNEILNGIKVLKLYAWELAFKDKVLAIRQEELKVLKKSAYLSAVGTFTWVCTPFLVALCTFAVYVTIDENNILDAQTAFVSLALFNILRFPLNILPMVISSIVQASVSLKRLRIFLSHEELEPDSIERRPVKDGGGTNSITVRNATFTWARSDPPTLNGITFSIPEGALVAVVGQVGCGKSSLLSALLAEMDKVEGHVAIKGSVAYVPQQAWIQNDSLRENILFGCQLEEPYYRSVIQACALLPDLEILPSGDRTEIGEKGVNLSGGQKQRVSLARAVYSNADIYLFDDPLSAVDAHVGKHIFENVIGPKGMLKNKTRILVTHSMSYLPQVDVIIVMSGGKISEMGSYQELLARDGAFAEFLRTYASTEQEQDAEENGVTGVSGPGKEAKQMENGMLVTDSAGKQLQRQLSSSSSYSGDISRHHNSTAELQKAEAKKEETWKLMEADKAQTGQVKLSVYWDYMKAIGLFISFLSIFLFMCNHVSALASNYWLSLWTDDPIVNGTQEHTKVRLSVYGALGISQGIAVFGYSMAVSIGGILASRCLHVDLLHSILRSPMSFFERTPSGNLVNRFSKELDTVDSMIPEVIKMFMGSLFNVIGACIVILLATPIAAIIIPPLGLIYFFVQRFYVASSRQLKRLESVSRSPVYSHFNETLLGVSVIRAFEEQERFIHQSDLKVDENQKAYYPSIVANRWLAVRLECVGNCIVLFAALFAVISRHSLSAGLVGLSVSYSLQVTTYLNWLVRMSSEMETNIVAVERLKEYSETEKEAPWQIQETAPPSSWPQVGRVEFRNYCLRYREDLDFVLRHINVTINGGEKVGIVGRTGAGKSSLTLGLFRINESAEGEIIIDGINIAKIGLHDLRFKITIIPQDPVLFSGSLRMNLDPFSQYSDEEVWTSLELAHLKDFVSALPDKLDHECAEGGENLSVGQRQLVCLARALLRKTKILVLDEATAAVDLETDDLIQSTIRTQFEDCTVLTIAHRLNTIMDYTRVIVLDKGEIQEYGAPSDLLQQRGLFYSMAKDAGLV
T4 sequence (P11712 whole entry): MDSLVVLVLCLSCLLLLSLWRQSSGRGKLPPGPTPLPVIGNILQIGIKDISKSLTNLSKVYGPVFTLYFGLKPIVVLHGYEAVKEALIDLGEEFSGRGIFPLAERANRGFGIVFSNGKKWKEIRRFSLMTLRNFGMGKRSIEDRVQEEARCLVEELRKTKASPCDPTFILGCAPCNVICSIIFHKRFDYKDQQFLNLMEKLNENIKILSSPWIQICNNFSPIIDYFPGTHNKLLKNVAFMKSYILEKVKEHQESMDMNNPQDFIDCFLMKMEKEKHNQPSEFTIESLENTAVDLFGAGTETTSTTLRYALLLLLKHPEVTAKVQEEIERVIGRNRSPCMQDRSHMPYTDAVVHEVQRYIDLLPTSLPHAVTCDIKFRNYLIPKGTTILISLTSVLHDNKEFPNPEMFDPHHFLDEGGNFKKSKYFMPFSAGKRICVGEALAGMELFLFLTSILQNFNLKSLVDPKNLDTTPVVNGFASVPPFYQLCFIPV

As to `O=C(NCCCNCc1ccccc1)c1ccc(Cl)cc1` [compound 7i-deMe], the solubility in data set [1] (setting [2]) was 187 µM (≈ 56.6 µg/mL); in [1] (setting [3]), 197 µM (≈ 59.7 µg/mL); in data set [1] (setting [4]) it was 196 µM (≈ 59.3 µg/mL). Further, in “Plasma stability”, the half-life at 10 µM is 23 h. Moreover, the inhibition at 10 µM at MRP3 is -0.6%; at P-gp, 1%; at MRP1, -3.4%; at MRP2, -11.5%; on BCRP it was -3%; at CYP2D6, 91.6%. Besides, the inhibition at 10 µM at CYP2B6 was 15.9%; at CYP2C9, 5.9%; at CYP1A, 9.4%; on CYP2C19, 18.4%; with CYP3A it was 3.2%; at CYP2C8, -7.2%.

Take `CN(CCCNC(=O)c1ccc(Cl)cc1)Cc1ccccc1` [compound 7i]: the solubility in data set [1] (setting [2]) is 185 µM (≈ 58.6 µg/mL); in data set [1] (setting [3]), 193 µM (≈ 61.1 µg/mL); in data set [1] (setting [4]) it was 188 µM (≈ 59.6 µg/mL). Further, the half-life at 10 µM in the data set “Plasma stability” was greater than 24 h. The inhibition at 10 µM at MRP3 was -0.3%; on P-gp it was 10.6%; at MRP1, 1.9%; at MRP2 it was -18.8%; at BCRP, 8.3%; at CYP2D6, 95.1%. Further, the inhibition at 10 µM is -4.3% at CYP2B6; -7.2% on CYP2C9; 2.1% at CYP1A; 36.5% on CYP2C19; 36.9% in the data set on CYP3A; -9.2% at CYP2C8.
